In US8710233B2 (Gruenenthal GmbH, priority 2005, dated 2014):

Key:
Assay type in all cases: cell-based
[1] = biological target: T1, vanilloid receptor 1 (VR1/TRPV1) of the rat species (Rattus norvegicus, UniProt O35433); assay: FLIPR Ca2+ influx assay on rat dorsal root ganglia cells (pharmacological method I); details: for Ki: table 4, capsaicin, read-out: Ki (rat) Cap.
T1 construct: The spinal column is removed from decapitated rats; from tissue; host or cells: primary cells dissociated from rat dorsal root ganglia
T1 sequence (O35433 whole entry): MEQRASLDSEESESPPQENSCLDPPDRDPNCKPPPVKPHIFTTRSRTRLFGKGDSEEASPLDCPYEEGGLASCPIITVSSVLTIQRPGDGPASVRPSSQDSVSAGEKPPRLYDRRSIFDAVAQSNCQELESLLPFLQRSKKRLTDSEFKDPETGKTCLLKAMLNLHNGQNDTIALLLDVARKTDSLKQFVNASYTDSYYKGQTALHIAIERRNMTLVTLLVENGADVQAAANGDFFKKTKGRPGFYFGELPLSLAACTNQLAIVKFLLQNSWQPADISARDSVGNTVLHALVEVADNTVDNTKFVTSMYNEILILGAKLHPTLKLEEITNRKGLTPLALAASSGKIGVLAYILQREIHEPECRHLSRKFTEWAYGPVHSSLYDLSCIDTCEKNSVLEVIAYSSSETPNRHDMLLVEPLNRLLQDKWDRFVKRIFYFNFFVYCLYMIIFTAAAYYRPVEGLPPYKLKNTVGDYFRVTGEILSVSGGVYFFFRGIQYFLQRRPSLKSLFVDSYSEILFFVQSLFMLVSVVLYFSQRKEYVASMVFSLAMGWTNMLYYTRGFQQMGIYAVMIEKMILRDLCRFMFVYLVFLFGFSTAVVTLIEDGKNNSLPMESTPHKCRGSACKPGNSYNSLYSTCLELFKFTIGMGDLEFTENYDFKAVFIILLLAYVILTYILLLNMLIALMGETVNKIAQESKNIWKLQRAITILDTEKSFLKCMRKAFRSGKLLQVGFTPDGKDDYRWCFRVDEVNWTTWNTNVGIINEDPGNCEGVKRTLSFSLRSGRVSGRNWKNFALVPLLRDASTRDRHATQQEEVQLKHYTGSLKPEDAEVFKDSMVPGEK
Method in brief: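 Primary rat dorsal root ganglion cells loaded with 2 μM Fluo-4, Ca2+ influx read on FLIPR as peak fluorescence. Triplicates, at least 3 independent experiments.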

vanilloid receptor (VR1) = biological target: T2, vanilloid receptor (VR1) (Homo sapiens, UniProt Q8NER1); assay: FLIPR Ca2+ influx assay on CHO K1 cells transfected with the VR1 gene (pharmacological method II); details: for Ki: table 4, capsaicin, read-out: Ki (human) Cap.
T2 construct: expressed in transfected cells; host or cells: CHO K1 cells (ECACC), stably transfected
T2 sequence (Q8NER1 whole entry): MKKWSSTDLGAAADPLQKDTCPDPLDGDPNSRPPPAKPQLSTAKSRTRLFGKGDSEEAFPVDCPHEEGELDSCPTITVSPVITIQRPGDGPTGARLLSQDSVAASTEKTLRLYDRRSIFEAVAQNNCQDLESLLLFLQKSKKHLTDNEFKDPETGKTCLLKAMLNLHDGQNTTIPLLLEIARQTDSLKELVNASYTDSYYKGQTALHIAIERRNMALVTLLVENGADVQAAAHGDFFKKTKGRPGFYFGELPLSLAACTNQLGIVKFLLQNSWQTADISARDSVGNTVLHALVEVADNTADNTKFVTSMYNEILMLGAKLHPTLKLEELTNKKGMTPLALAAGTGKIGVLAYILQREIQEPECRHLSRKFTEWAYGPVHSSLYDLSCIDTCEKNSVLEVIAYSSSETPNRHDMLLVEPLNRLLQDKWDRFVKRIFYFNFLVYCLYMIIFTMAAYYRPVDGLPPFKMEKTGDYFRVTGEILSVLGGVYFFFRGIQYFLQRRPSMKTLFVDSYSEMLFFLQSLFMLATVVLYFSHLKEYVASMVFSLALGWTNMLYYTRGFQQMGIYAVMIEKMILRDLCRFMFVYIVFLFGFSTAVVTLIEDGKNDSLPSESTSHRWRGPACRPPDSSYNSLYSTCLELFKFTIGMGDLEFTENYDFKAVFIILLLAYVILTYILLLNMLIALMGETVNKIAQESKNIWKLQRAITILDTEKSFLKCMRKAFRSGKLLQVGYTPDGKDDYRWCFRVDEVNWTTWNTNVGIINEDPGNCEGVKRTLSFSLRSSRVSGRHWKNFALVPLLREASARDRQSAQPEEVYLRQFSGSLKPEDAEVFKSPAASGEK

VR1/TRPV1 receptor = VR1/TRPV1 receptor (Homo sapiens, UniProt Q8NER1); assay: IC50 (human) after pH stimulus; details: for IC50: table 4
VR1/TRPV1 receptor, sequence (Q8NER1 whole entry): as above

[2] = read-out: inhibition in percent, IC50 (human) after pH stimulus

| Ki [1] [nM] | Ki (vanilloid receptor (VR1)) [nM] | inhibition in percent, IC50 (human) after pH stimulus (VR1/TRPV1 receptor; @ 1 μM, ne = no effect) [%] | inhibition at 10 µM (VR1/TRPV1 receptor; [2]) [%] | IC50 (VR1/TRPV1 receptor) [nM] | inhibition at 10 µM ([1]; @ 10 μM, read-out: inhibition in percent, Ki (rat) Cap.) [%] | inhibition at 10 µM (vanilloid receptor (VR1); CHO-K1, @ 10 μM, read-out: inhibition in percent, Ki (human) Cap.) [%] | inhibition at 25 µM (VR1/TRPV1 receptor; @ 25 μM, read-out: inhibition in percent, IC50 (human) after pH stimulus) [%] | inhibition at 1 µM (VR1/TRPV1 receptor; @ 1 μM, ne = no effect, read-out: inhibition in percent, IC50 (human) after pH stimulus) [%] | Compound |
| --- | --- | --- | --- | --- | --- | --- | --- | --- | --- |
| 1.5 | 1.4 |  |  | 108 |  |  |  |  | CC(C(=O)NCc1ccc(C(F)(F)F)nc1N1CCN(c2ccccn2)CC1)c1ccc(NS(C)(=O)=O)c(F)c1 (centres unmarked) [Example 214, 2-(3-fluoro-4-methylsulfonamido-phenyl)-N-[2-(4-pyridin-2-yl-piperazin-1-yl)-6-trifluoromethyl-pyridin-3-ylmethyl]-propionamide] |
|  |  |  |  |  | 48 | 37 | 15 |  | CC(C(=O)NCc1ccc(C(F)(F)F)nc1)c1ccc(NS(C)(=O)=O)c(F)c1 (centres unmarked) [Example 215, 2-(3-fluoro-4-methylsulfonamido-phenyl)-N-(6-trifluoromethyl-pyridin-3-ylmethyl)-propionamide] |
| 348 | 91 |  | 51 |  |  |  |  | 7 | CC(C(=O)NCc1ccc(C(F)(F)F)nc1N1CCC(=O)CC1)c1ccc(NS(C)(=O)=O)c(F)c1 (centres unmarked) [Example 227] |
| 2.5 | 1.3 |  |  | 612 |  |  |  |  | CCOC1CCN(c2nc(C(F)(F)F)ccc2CNC(=O)C(C)c2ccc(NS(C)(=O)=O)c(F)c2)CC1 (centres unmarked) [Example 228, N-(4-ethoxy-6′-trifluoromethyl-3,4,5,6-tetrahydro-2H-[1,2′]bipyridinyl-3′-ylmethyl)-2-(3-fluoro-4-methylsulfonamido-phenyl)-propionamide] |

The remaining lines, values behind:

| Compound | Ki [1] [nM] | Ki (vanilloid receptor (VR1)) [nM] | inhibition in percent, IC50 (human) after pH stimulus (VR1/TRPV1 receptor; @ 1 μM, ne = no effect) [%] | inhibition at 10 µM (VR1/TRPV1 receptor; [2]) [%] | IC50 (VR1/TRPV1 receptor) [nM] | inhibition at 10 µM ([1]; @ 10 μM, read-out: inhibition in percent, Ki (rat) Cap.) [%] | inhibition at 10 µM (vanilloid receptor (VR1); CHO-K1, @ 10 μM, read-out: inhibition in percent, Ki (human) Cap.) [%] | inhibition at 25 µM (VR1/TRPV1 receptor; @ 25 μM, read-out: inhibition in percent, IC50 (human) after pH stimulus) [%] | inhibition at 1 µM (VR1/TRPV1 receptor; @ 1 μM, ne = no effect, read-out: inhibition in percent, IC50 (human) after pH stimulus) [%] |
| --- | --- | --- | --- | --- | --- | --- | --- | --- | --- |
| CC(C(=O)NCc1ccc(C(F)(F)F)nc1N1CCN(c2ncccc2C(F)(F)F)CC1)c1ccc(NS(C)(=O)=O)c(F)c1 (centres unmarked) [Example 213, 2-(3-fluoro-4-methylsulfonamido-phenyl)-N-{6-trifluoromethyl-2-[4-(3-trifluoromethyl-pyridin-2-yl)-piperazin-1-yl]-pyridin-3-ylmethyl}-propionamide] | 2 | 2.8 | 37 | 49 |  |  |  |  |  |
| CC(C(=O)NCc1ccc(C(F)(F)F)cc1N1CCC(C)(C)CC1)c1ccc(NS(C)(=O)=O)c(F)c1 (centres unmarked) [Example 218, N-[2-(4,4-dimethyl-piperidin-1-yl)-4-trifluoromethyl-benzyl]-2-(3-fluoro-4-methylsulfonamido-phenyl)-propionamide] | 0.4 | 1.3 |  |  | 13.8 |  |  |  |  |
| Cc1ccc(N2CCN(c3nc(C(F)(F)F)ccc3CNC(=O)C(C)c3ccc(NS(C)(=O)=O)c(F)c3)CC2)cc1 (centres unmarked) [Example 219, 2-(3-fluoro-4-methylsulfonamido-phenyl)-N-[2-(4-p-tolyl-piperazin-1-yl)-6-trifluoromethyl-pyridin-3-ylmethyl]-propionamide] | 2.4 | 3.3 |  |  | 38.3 |  |  |  |  |
| Cc1cccc(N2CCN(c3nc(C(F)(F)F)ccc3CNC(=O)C(C)c3ccc(NS(C)(=O)=O)c(F)c3)CC2)c1 (centres unmarked) [Example 220, 2-(3-fluoro-4-methylsulfonamido-phenyl)-N-[2-(4-m-tolyl-piperazin-1-yl)-6-trifluoromethyl-pyridin-3-ylmethyl]-propionamide] | 2.4 | 3.4 |  |  | 39.2 |  |  |  |  |
| CC(C(=O)NCc1ccc(C(F)(F)F)nc1N1CCN(c2ccc(C(F)(F)F)cc2)CC1)c1ccc(NS(C)(=O)=O)c(F)c1 (centres unmarked) [Example 222, 2-(3-fluoro-4-methylsulfonamido-phenyl)-N-{6-trifluoromethyl-2-[4-(4-trifluoromethyl-phenyl)-piperazin-1-yl]-pyridin-3-ylmethyl}propionamide] | 2.4 | 3.4 |  |  | 39.2 |  |  |  |  |
| CC(C(=O)NCc1ccc(C(F)(F)F)nc1N1CCC(OC(=O)C(C)(C)C)CC1)c1ccc(NS(C)(=O)=O)c(F)c1 (centres unmarked) [Example 226, 2,2-dimethyl-propionic acid 3′-{[2-(3-fluoro-4-methylsulfonamido-phenyl)-propionylamino]-methyl}-6′-trifluoromethyl-3,4,5,6-tetrahydro-2H-[1,2′]bipyridinyl-4-yl ester] | 1.5 | 2 |  |  | 45.2 |  |  |  |  |
